Experimental data from patent US20070128217A1 (priority 2003, published 2007).

Assays:
[1] = tested on: antibodies in sera from SARS patients (sera 1a, 1b, 2, 6, 37, 62, London, SARS-yellow, SARS-green); type: binding, human
[2] = tested on: control sera (pooled serum of ten healthy LUMC hospital workers; commercial negative donor pooled serum from the Dutch bloodbank); type: binding, human
[3] = tested on: rabbit serum obtained by immunizing a rabbit with the SARS-CoV strain Frankfurt 1; type: binding; set-up: Binding of a rabbit serum to linear peptides / Binding of a rabbit serum to looped peptides / Rabbit serum linear peptides / Rabbit serum looped peptides / Binding of a rabbit serum to linear peptides of protein N of SARS-CoV Urbani (Rabbit serum linear peptides) / Binding of a rabbit serum to looped/cyclic peptides of protein N of SARS-CoV Urbani (Rabbit serum looped peptides): unit not given here

Sequence	Binding of serum 1a to linear peptides of protein E of SARS-CoV Urbani [1]	Binding of serum 1a to looped/cyclic peptides of protein E of SARS-CoV Urbani [1]	Binding of serum 1b to linear peptides of protein E of SARS-CoV Urbani [1]	Binding of serum 1b to looped/cyclic peptides of protein E of SARS-CoV Urbani [1]	Binding of serum 2 to linear peptides of protein E of SARS-CoV Urbani [1]	Binding of serum 2 to looped/cyclic peptides of protein E of SARS-CoV Urbani [1]	Binding of serum 6 to linear peptides of protein E of SARS-CoV Urbani [1]	Binding of serum 6 to looped/cyclic peptides of protein E of SARS-CoV Urbani [1]	Binding of serum 37 to linear peptides of protein E of SARS-CoV Urbani [1]	Binding of serum 37 to looped/cyclic peptides of protein E of SARS-CoV Urbani [1]	Binding of serum 62 to linear peptides of protein E of SARS-CoV Urbani [1]	Binding of serum 62 to looped/cyclic peptides of protein E of SARS-CoV Urbani [1]	Binding of serum London to linear peptides of protein E of SARS-CoV Urbani [1]	Binding of serum London to looped/cyclic peptides of protein E of SARS-CoV Urbani [1]	Binding of serum SARS-green to linear peptides of protein E of SARS-CoV Urbani [1]	Binding of serum SARS-green to looped/cyclic peptides of protein E of SARS-CoV Urbani [1]	Binding of serum SARS-yellow to linear peptides of protein E of SARS-CoV Urbani [1]	Binding of serum SARS-yellow to looped/cyclic peptides of protein E of SARS-CoV Urbani [1]	Binding of Control Serum Blood-Bank to Looped peptides [2]	Binding of Control serum Blood-bank to linear peptides [2]	also measured
FVVFLLVTLAILTAL	0.6	0.4	0.4	0.4	0.5	0.4	0.3	0.6	0.4	0.5	0.3	0.6	0.5	0.4	0.5	0.4	0.2	0.6	0.7	0.5	Binding of Control serum LUMC to linear peptides [2]: 0.5; Binding of Control serum LUMC to looped peptides [2]: 0.6; Binding of a rabbit serum to linear peptides [3]: 0.2; Binding of a rabbit serum to looped peptides [3]: 0.2
GTLIVNSVLLFLAFV	0.8	0.2	0.7	0.0	0.4	0.6	0.9	0.3	0.8	0.2	0.7	0.4	0.5	0.4	0.4	0.4	0.2	0.0	0.7	0.7	Binding of Control serum LUMC to linear peptides [2]: 0.5; Binding of Control serum LUMC to looped peptides [2]: 0.3; Binding of a rabbit serum to linear peptides [3]: 0.6; Binding of a rabbit serum to looped peptides [3]: 0.0
